Experimental data published in ChEMBL document CHEMBL1201861, “Genomics of Drug Sensitity in Cancer screening data, Wellcome Trust Sanger Institute”.
pIC50: −log10 of the molar value.

What was measured:
Test in all cases: cells
Details in all cases: Homo sapiens
COLO-824 = assay type: functional, cell-based
Description: SANGER: Inhibition of human COLO-824 cell growth in a cell viability assay.

CP66-MEL = assay type: functional, cell-based;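 further: growth inhibition of CP66-MEL cells determined in a cell viability assay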
Description: SANGER: Inhibition of human CP66-MEL cell growth in a cell viability assay.

CTV-1 = assay type: functional, cell-based;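 further: growth inhibition of the cell line, read out with a cell viability assay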
Description: SANGER: Inhibition of human CTV-1 cell growth in a cell viability assay.

CW-2 = assay type: functional, cell-based;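 further: growth inhibition of CW-2 cells, read out by a cell viability assay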
Description: SANGER: Inhibition of human CW-2 cell growth in a cell viability assay.

D283 Med = assay type: functional, cell-based
Description: SANGER: Inhibition of human D-283MED cell growth in a cell viability assay.

DB = assay type: functional, cell-based
Description: SANGER: Inhibition of human DB cell growth in a cell viability assay.

DEL = assay type: functional, cell-based;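 further: growth inhibition of the human DEL cell line, read out with a cell viability assay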
Description: SANGER: Inhibition of human DEL cell growth in a cell viability assay.

DMS-79 = assay type: functional, cell-based;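 further: growth inhibition measured with a cell viability assay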
Description: SANGER: Inhibition of human DMS-79 cell growth in a cell viability assay.

GAK = assay type: functional, cell-based;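 further: cell growth inhibition read out by a cell viability assay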
Description: SANGER: Inhibition of human GAK cell growth in a cell viability assay.

GI-ME-N = assay type: functional, cell-based;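 further: growth inhibition of human GI-ME-N cells, read out with a cell viability assay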
Description: SANGER: Inhibition of human GI-ME-N cell growth in a cell viability assay.

HEL = assay type: functional, cell-based;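 further: growth inhibition of HEL cells, read out with a cell viability assay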
Description: SANGER: Inhibition of human HEL cell growth in a cell viability assay.

HH = assay type: functional, cell-based
Description: SANGER: Inhibition of human HH cell growth in a cell viability assay.

KALS-1 = assay type: functional, cell-based;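 further: growth inhibition of KALS-1 cells, determined with a cell viability assay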
Description: SANGER: Inhibition of human KALS-1 cell growth in a cell viability assay.

KINGS-1 = assay type: functional, cell-based;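 further: cell viability assay measuring suppression of KINGS-1 cell growth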
Description: SANGER: Inhibition of human KINGS-1 cell growth in a cell viability assay.

KNS-42 = assay type: functional, cell-based;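 further: growth inhibition of KNS-42 cells, read out with a cell viability assay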
Description: SANGER: Inhibition of human KNS-42 cell growth in a cell viability assay.

KP-N-YS = assay type: functional, cell-based;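 further: cell viability assay measuring inhibition of cell line growth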
Description: SANGER: Inhibition of human KP-N-YS cell growth in a cell viability assay.

KU812 cell line = assay type: functional, cell-based;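 further: growth inhibition of KU812 cells, read out with a cell viability assay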
Description: SANGER: Inhibition of human KU812 cell growth in a cell viability assay.

KURAMOCHI = assay type: functional, cell-based;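 further: growth inhibition of KURAMOCHI cells, read out with a cell viability assay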
Description: SANGER: Inhibition of human KURAMOCHI cell growth in a cell viability assay.

LC-2-ad = assay type: functional, cell-based;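 further: growth inhibition of human LC-2-ad cells, read out with a cell viability assay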
Description: SANGER: Inhibition of human LC-2-ad cell growth in a cell viability assay.

LOX IMVI = assay type: functional, cell-based
Description: SANGER: Inhibition of human LOXIMVI cell growth in a cell viability assay.

LU-139 = assay type: functional, cell-based
Description: SANGER: Inhibition of human LU-139 cell growth in a cell viability assay.

Lu-65 = assay type: functional, cell-based;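 further: growth inhibition of Lu-65 cancer cells, read out by a cell viability assay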
Description: SANGER: Inhibition of human LU-65 cell growth in a cell viability assay.

MEG-01 = assay type: functional, cell-based;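 further: growth inhibition of MEG-01 cells, read out by a cell viability assay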
Description: SANGER: Inhibition of human MEG-01 cell growth in a cell viability assay.

MFM-223 = assay type: functional, cell-based
Description: SANGER: Inhibition of human MFM-223 cell growth in a cell viability assay.

MN-60 = assay type: functional, cell-based;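 further: growth inhibition of the MN-60 cell line, determined with a cell viability assay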
Description: SANGER: Inhibition of human MN-60 cell growth in a cell viability assay.

MPP-89 = assay type: functional, cell-based;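 further: growth inhibition of human MPP-89 cells, read out with a cell viability assay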
Description: SANGER: Inhibition of human MPP-89 cell growth in a cell viability assay.

MS-1 = assay type: functional, cell-based;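 further: growth inhibition of MS-1 cells, read out by cell viability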
Description: SANGER: Inhibition of human MS-1 cell growth in a cell viability assay.

MSTO-211H = assay type: functional, cell-based
Description: SANGER: Inhibition of human MSTO-211H cell growth in a cell viability assay.

MZ1-PC = assay type: functional, cell-based;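 further: cell viability assay measuring growth inhibition of human MZ1-PC cells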
Description: SANGER: Inhibition of human MZ1-PC cell growth in a cell viability assay.

Mo = assay type: functional, cell-based
Description: SANGER: Inhibition of human Mo-T cell growth in a cell viability assay.

NB10 = assay type: functional, cell-based;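 further: growth inhibition of NB10 cells, read out by a cell viability assay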
Description: SANGER: Inhibition of human NB10 cell growth in a cell viability assay.

NB5 = assay type: functional, cell-based;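 further: growth inhibition of NB5 cells, read out as cell viability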
Description: SANGER: Inhibition of human NB5 cell growth in a cell viability assay.

NCI-H1092 = assay type: functional, cell-based;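 further: cell growth inhibition measured with a cell viability assay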
Description: SANGER: Inhibition of human NCI-H1092 cell growth in a cell viability assay.

NCI-H1648 = assay type: functional, cell-based;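 further: cell viability assay measuring inhibition of NCI-H1648 cell growth, from the Sanger screening data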
Description: SANGER: Inhibition of human NCI-H1648 cell growth in a cell viability assay.

NCI-H1770 = assay type: functional, cell-based;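 further: growth inhibition of NCI-H1770 cells determined with a viability readout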
Description: SANGER: Inhibition of human NCI-H1770 cell growth in a cell viability assay.

NCI-H226 = assay type: functional, cell-based;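 further: cell viability read-out used to gauge growth inhibition of the cells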
Description: SANGER: Inhibition of human NCI-H226 cell growth in a cell viability assay.

NCI-H23 = assay type: functional, cell-based;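 further: cell viability assay measuring growth inhibition of NCI-H23 cells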
Description: SANGER: Inhibition of human NCI-H23 cell growth in a cell viability assay.

NCI-H510A = assay type: functional, cell-based;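 further: growth inhibition of NCI-H510A cells, read out with a cell viability assay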
Description: SANGER: Inhibition of human NCI-H510A cell growth in a cell viability assay.

SNU1 = assay type: functional, cell-based;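 further: growth inhibition of human NCI-SNU-1 cells, measured with a cell viability assay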
Description: SANGER: Inhibition of human NCI-SNU-1 cell growth in a cell viability assay.

NEC8 = assay type: functional, cell-based;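 further: growth inhibition of human NEC8 cells, read out by a cell viability assay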
Description: SANGER: Inhibition of human NEC8 cell growth in a cell viability assay.

NH-12 = assay type: functional, cell-based;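 further: growth inhibition of NH-12 cells, read out with a cell viability assay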
Description: SANGER: Inhibition of human NH-12 cell growth in a cell viability assay.

NOS-1 = assay type: functional, cell-based;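 further: growth inhibition of the human NOS-1 cell line, read out with a cell viability assay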
Description: SANGER: Inhibition of human NOS-1 cell growth in a cell viability assay.

NTERA-2-cl-D1 = assay type: functional, cell-based;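 further: inhibition of cell growth, measured with a cell viability assay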
Description: SANGER: Inhibition of human NTERA-S-cl-D1 cell growth in a cell viability assay.

OCUB-M = assay type: functional, cell-based;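 further: growth inhibition of the cancer cell line, read out through a cell viability assay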
Description: SANGER: Inhibition of human OCUB-M cell growth in a cell viability assay.

RH-1 = assay type: functional, cell-based;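 further: growth inhibition of human RH-1 cells, read out with a cell viability assay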
Description: SANGER: Inhibition of human RH-1 cell growth in a cell viability assay.

SNB-75 = assay type: functional, cell-based;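 further: cell viability assay measuring growth inhibition of human SNB-75 cells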
Description: SANGER: Inhibition of human SNB75 cell growth in a cell viability assay.

SW684 = assay type: functional, cell-based;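 further: growth inhibition of human SW684 cells, measured by a cell viability assay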
Description: SANGER: Inhibition of human SW684 cell growth in a cell viability assay.

SW 954 = assay type: functional, cell-based;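 further: growth inhibition of SW954 human cancer cells, read out as cell viability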
Description: SANGER: Inhibition of human SW954 cell growth in a cell viability assay.

TE-1 = assay type: functional, cell-based
Description: SANGER: Inhibition of human TE-1 cell growth in a cell viability assay.

8-MG-BA = assay type: functional, cell-based;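 further: growth inhibition of 8-MG-BA cells, read out with a cell viability assay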
Description: SANGER: Inhibition of human 8-MG-BA cell growth in a cell viability assay.

ALL-PO = assay type: functional, cell-based;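 further: growth inhibition of ALL-PO cells, read out by a cell viability assay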
Description: SANGER: Inhibition of human ALL-PO cell growth in a cell viability assay.

AM-38 = assay type: functional, cell-based;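 further: growth inhibition of AM-38 cells of human origin, read out by a cell viability assay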
Description: SANGER: Inhibition of human AM-38 cell growth in a cell viability assay.

TE-12 = assay type: functional, cell-based;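 further: growth inhibition of TE-12 cells, read out by a cell viability assay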
Description: SANGER: Inhibition of human TE-12 cell growth in a cell viability assay.

TE-9 = assay type: functional, cell-based;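 further: cell growth inhibition, measured with a cell viability readout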
Description: SANGER: Inhibition of human TE-9 cell growth in a cell viability assay.

TK-10 = assay type: functional, cell-based;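 further: growth inhibition of TK-10 cells, read out in a cell viability assay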
Description: SANGER: Inhibition of human TK10 cell growth in a cell viability assay.

U-266 = assay type: functional, cell-based
Description: SANGER: Inhibition of human U-266 cell growth in a cell viability assay.

U-87 MG = assay type: functional, cell-based, U-87MG ATCC;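 further: growth inhibition of the cells measured with a viability assay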
Description: SANGER: Inhibition of human U-87-MG cell growth in a cell viability assay.

UACC-257 = assay type: functional, cell-based
Description: SANGER: Inhibition of human UACC-257 cell growth in a cell viability assay.

no-11 = assay type: functional, cell-based;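 further: growth inhibition of human NO-11 cells, read out with a cell viability assay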
Description: SANGER: Inhibition of human no-11 cell growth in a cell viability assay.

CAS-1 = assay type: functional, cell-based;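 further: growth inhibition of CAS-1 cells, measured with a cell viability assay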
Description: SANGER: Inhibition of human CAS-1 cell growth in a cell viability assay.

CGTH-W-1 = assay type: functional, cell-based;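 further: growth inhibition of human CGTH-W-1 cells measured by cell viability assay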
Description: SANGER: Inhibition of human CGTH-W-1 cell growth in a cell viability assay.

COLO-684 = assay type: functional, cell-based
Description: SANGER: Inhibition of human COLO-684 cell growth in a cell viability assay.

KLE = assay type: functional, cell-based
Description: SANGER: Inhibition of human KLE cell growth in a cell viability assay.

SCC-15 = assay type: functional, cell-based
Description: SANGER: Inhibition of human SCC-15 cell growth in a cell viability assay.

SW982 = assay type: functional, cell-based
Description: SANGER: Inhibition of human SW982 cell growth in a cell viability assay.

TE-11 = assay type: functional, cell-based
Description: SANGER: Inhibition of human TE-11 cell growth in a cell viability assay.

With `CCn1c(-c2nonc2N)nc2cnc(Oc3cccc(NC(=O)c4ccc(OCCN5CCOCC5)cc4)c3)cc21` [GSK-269962A] the pIC50 (COLO-824) was under 5.60, the pIC50 (CP66-MEL) was under 5.60 and the pIC50 (CTV-1) was under 5.60. For the same molecule, the pIC50 (CW-2) was under 5.60, the pIC50 (D283 Med) was under 5.60 and the pIC50 (DB) was under 5.60. The pIC50 (DEL) was under 5.60, the pIC50 (DMS-79) was under 5.60 and the pIC50 (GAK) was under 5.60. For the same molecule, the pIC50 (GI-ME-N) was 7.31, the pIC50 (HEL) was under 5.60 and the pIC50 (HH) was under 5.60. The pIC50 (KALS-1) was under 5.60, the pIC50 (KINGS-1) was under 5.60 and the pIC50 (KNS-42) was under 5.60. For the same molecule, the pIC50 (KP-N-YS) was under 5.60, the pIC50 (KU812 cell line) was under 5.60 and the pIC50 (KURAMOCHI) was under 5.60. For the same molecule, the pIC50 (LC-2-ad) was under 5.60, the pIC50 (LOX IMVI) was under 5.60 and the pIC50 (LU-139) was under 5.60. It also gave a pIC50 (Lu-65) of under 5.60, a pIC50 (MEG-01) of under 5.60 and a pIC50 (MFM-223) of under 5.60. The pIC50 (MN-60) was under 5.60, the pIC50 (MPP-89) was 5.90 and the pIC50 (MS-1) was under 5.60. It also gave a pIC50 (MSTO-211H) of under 5.60, a pIC50 (MZ1-PC) of under 5.60 and a pIC50 (Mo) of under 5.60. For the same molecule, the pIC50 (NB10) was 6.86, the pIC50 (NB5) was under 5.60 and the pIC50 (NCI-H1092) was under 5.60. It also gave a pIC50 (NCI-H1648) of under 5.60, a pIC50 (NCI-H1770) of under 5.60 and a pIC50 (NCI-H226) of under 5.60. The pIC50 (NCI-H23) was under 5.60, the pIC50 (NCI-H510A) was under 5.60 and the pIC50 (SNU1) was under 5.60. It also gave a pIC50 (NEC8) of under 5.60, a pIC50 (NH-12) of under 5.60 and a pIC50 (NOS-1) of under 5.60. For the same molecule, the pIC50 (NTERA-2-cl-D1) was under 5.60, the pIC50 (OCUB-M) was under 5.60 and the pIC50 (RH-1) was under 5.60. It also gave a pIC50 (SNB-75) of under 5.60, a pIC50 (SW684) of under 5.60 and a pIC50 (SW 954) of under 5.60. The pIC50 (TE-1) was under 5.60, the pIC50 (8-MG-BA) was under 5.60 and the pIC50 (ALL-PO) was under 5.60. For the same molecule, the pIC50 (AM-38) was under 5.60, the pIC50 (TE-12) was under 5.60 and the pIC50 (TE-9) was under 5.60. The pIC50 (TK-10) was under 5.60, the pIC50 (U-266) was under 5.60 and the pIC50 (U-87 MG) was under 5.60. For the same molecule, the pIC50 (UACC-257) was under 5.60, the pIC50 (no-11) was under 5.60 and the pIC50 (CAS-1) was 6.07. For the same molecule, the pIC50 (CGTH-W-1) was under 5.60 and the pIC50 (COLO-684) was under 5.60.

`CO[C@@]12[C@H](COC(N)=O)C3=C(C(=O)C(C)=C(N)C3=O)N1C[C@@H]1N[C@@H]12` [MITOMYCIN] gave a pIC50 (COLO-824) of 5.84, a pIC50 (CP66-MEL) of 6.19 and a pIC50 (CTV-1) of 7.73. For the same molecule, the pIC50 (CW-2) was 5.11, the pIC50 (D283 Med) was 6.66 and the pIC50 (DB) was 6.37. The pIC50 (DEL) was 7.32, the pIC50 (DMS-79) was 5.61 and the pIC50 (GAK) was 6.22. The pIC50 (GI-ME-N) was 5.86, the pIC50 (HEL) was 7.45 and the pIC50 (HH) was 5.97. For the same molecule, the pIC50 (KALS-1) was 6.89, the pIC50 (KINGS-1) was 5.06 and the pIC50 (KLE) was 5.53. For the same molecule, the pIC50 (KNS-42) was 5.96, the pIC50 (KU812 cell line) was 6.82 and the pIC50 (KURAMOCHI) was 6.28. It also gave a pIC50 (LC-2-ad) of over 7.20, a pIC50 (LOX IMVI) of 6.45 and a pIC50 (LU-139) of 5.91. For the same molecule, the pIC50 (Lu-65) was 5.99, the pIC50 (MEG-01) was 6.17 and the pIC50 (MFM-223) was 4.98. For the same molecule, the pIC50 (MN-60) was 5.90, the pIC50 (MPP-89) was 6.00 and the pIC50 (MS-1) was 6.46. The pIC50 (MSTO-211H) was 5.55, the pIC50 (MZ1-PC) was 6.35 and the pIC50 (Mo) was 5.05. The pIC50 (NB10) was 7.09, the pIC50 (NB5) was 6.45 and the pIC50 (NCI-H1092) was 5.48. The pIC50 (NCI-H1648) was 6.28, the pIC50 (NCI-H1770) was 6.47 and the pIC50 (NCI-H226) was 6.11. For the same molecule, the pIC50 (NCI-H23) was 5.92, the pIC50 (NCI-H510A) was 6.39 and the pIC50 (SNU1) was 6.81. It also gave a pIC50 (NEC8) of 6.73, a pIC50 (NH-12) of 6.86 and a pIC50 (NOS-1) of 5.82. It also gave a pIC50 (NTERA-2-cl-D1) of over 7.20, a pIC50 (OCUB-M) of 6.99 and a pIC50 (RH-1) of 7.30. It also gave a pIC50 (SCC-15) of 6.06, a pIC50 (SNB-75) of 6.52 and a pIC50 (SW684) of under 4.80. The pIC50 (SW 954) was 7.35, the pIC50 (SW982) was 6.98 and the pIC50 (TE-1) was 6.78. For the same molecule, the pIC50 (8-MG-BA) was 6.98, the pIC50 (ALL-PO) was 7.51 and the pIC50 (AM-38) was 6.66. It also gave a pIC50 (TE-11) of 7.04, a pIC50 (TE-12) of 6.72 and a pIC50 (TE-9) of 6.30. It also gave a pIC50 (TK-10) of 6.28, a pIC50 (U-266) of 6.06 and a pIC50 (U-87 MG) of 5.89. For the same molecule, the pIC50 (UACC-257) was 5.81, the pIC50 (no-11) was 5.11 and the pIC50 (CAS-1) was 5.47. It also gave a pIC50 (CGTH-W-1) of 7.41 and a pIC50 (COLO-684) of 6.10.
